Measurements reported in publication PMC12249833, “Discovery and Characterization of Novel Non-Hydroxamate HDAC11 Inhibitors” (International Journal of Molecular Sciences, 2025).
Read-outs that look alike come from different tables or passages of the source.

Experiments:
[1] = target: T1, HDAC11 (Homo sapiens, UniProt Q96DB2); assay: High-throughput screening, residual HDAC11 enzyme activity; type: biochemical; conditions: final compound concentration 10 µM
T1 construct: His6 (N); SUMO (N); made in house; host or cells: E. coli BL21 (DE3)
T1 sequence (Q96DB2 1-347): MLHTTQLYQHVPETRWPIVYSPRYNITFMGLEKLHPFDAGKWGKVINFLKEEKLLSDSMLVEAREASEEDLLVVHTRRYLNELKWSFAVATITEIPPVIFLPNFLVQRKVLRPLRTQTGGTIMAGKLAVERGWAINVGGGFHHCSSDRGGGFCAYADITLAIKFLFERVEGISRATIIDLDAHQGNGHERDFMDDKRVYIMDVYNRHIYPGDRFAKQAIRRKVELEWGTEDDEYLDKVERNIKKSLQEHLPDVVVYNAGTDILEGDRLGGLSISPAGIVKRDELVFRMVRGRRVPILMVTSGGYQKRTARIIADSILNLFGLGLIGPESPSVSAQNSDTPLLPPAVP

[2] = target: T1, HDAC11; assay: HDAC11 fluorimetric enzyme activity assay (Boc-Lys(TFA)-AMC), dose-response; type: biochemical
[3] = target: T2, HDAC6 (Homo sapiens, UniProt Q9UBN7); assay: Isoenzyme selectivity, HDAC6 dose-response; type: biochemical; conditions: means ± standard deviation (n = 3)
T2 sequence (Q9UBN7 1-1215): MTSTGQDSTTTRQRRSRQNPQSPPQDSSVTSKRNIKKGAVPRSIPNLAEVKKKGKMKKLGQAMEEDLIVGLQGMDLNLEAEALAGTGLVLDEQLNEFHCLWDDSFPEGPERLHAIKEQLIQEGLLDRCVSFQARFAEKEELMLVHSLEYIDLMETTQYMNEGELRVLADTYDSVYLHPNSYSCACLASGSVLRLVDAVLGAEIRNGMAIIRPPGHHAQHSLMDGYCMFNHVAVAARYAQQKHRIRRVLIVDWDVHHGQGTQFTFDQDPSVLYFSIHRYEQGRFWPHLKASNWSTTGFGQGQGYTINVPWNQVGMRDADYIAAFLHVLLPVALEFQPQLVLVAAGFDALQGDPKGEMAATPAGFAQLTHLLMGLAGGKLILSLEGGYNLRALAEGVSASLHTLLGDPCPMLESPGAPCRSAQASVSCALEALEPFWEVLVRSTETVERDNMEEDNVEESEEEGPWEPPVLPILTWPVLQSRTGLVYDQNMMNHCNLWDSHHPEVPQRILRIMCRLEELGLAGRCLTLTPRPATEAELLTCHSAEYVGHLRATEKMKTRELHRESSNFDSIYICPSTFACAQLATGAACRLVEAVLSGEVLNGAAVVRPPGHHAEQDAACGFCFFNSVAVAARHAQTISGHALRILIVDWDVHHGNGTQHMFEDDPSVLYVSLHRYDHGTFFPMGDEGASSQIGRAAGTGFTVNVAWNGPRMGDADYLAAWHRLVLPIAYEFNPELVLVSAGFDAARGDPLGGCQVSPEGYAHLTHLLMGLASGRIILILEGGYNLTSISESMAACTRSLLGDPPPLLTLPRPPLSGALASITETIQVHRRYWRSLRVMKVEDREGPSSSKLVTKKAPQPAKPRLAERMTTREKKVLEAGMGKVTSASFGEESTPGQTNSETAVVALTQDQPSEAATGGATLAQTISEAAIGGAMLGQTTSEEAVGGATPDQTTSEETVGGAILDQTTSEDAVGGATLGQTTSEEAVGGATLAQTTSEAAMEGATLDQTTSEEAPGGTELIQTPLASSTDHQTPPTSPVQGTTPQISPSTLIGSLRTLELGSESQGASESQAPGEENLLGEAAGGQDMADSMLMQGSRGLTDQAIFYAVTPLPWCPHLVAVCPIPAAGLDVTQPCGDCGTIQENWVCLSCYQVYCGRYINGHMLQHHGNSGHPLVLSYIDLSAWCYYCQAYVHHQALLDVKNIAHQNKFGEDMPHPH

[4] = target: HDAC1 (Homo sapiens, UniProt Q13547); assay: Isoenzyme selectivity, HDAC1 dose-response; type: biochemical; conditions: means ± standard deviation (n = 3)
Sequence of HDAC1 (Q13547 whole entry, species assumed): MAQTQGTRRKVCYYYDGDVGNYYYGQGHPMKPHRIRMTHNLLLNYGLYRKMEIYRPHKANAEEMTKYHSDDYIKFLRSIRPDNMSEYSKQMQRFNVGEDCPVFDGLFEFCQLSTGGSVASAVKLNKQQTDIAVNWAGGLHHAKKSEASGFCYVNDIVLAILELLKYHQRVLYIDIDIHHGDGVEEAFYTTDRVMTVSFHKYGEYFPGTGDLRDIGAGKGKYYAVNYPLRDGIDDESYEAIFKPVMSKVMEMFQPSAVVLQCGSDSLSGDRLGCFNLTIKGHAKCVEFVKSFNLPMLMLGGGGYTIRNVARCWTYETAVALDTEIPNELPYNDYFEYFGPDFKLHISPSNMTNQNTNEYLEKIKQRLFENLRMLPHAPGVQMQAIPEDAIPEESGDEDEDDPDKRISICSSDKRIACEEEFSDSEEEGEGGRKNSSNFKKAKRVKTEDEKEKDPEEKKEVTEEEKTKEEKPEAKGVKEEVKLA

[5] = target: HDAC4 (Homo sapiens, UniProt P56524); assay: Isoenzyme selectivity, HDAC4 dose-response; type: biochemical; conditions: means ± standard deviation (n = 3)
Sequence of HDAC4 (P56524 whole entry, species assumed): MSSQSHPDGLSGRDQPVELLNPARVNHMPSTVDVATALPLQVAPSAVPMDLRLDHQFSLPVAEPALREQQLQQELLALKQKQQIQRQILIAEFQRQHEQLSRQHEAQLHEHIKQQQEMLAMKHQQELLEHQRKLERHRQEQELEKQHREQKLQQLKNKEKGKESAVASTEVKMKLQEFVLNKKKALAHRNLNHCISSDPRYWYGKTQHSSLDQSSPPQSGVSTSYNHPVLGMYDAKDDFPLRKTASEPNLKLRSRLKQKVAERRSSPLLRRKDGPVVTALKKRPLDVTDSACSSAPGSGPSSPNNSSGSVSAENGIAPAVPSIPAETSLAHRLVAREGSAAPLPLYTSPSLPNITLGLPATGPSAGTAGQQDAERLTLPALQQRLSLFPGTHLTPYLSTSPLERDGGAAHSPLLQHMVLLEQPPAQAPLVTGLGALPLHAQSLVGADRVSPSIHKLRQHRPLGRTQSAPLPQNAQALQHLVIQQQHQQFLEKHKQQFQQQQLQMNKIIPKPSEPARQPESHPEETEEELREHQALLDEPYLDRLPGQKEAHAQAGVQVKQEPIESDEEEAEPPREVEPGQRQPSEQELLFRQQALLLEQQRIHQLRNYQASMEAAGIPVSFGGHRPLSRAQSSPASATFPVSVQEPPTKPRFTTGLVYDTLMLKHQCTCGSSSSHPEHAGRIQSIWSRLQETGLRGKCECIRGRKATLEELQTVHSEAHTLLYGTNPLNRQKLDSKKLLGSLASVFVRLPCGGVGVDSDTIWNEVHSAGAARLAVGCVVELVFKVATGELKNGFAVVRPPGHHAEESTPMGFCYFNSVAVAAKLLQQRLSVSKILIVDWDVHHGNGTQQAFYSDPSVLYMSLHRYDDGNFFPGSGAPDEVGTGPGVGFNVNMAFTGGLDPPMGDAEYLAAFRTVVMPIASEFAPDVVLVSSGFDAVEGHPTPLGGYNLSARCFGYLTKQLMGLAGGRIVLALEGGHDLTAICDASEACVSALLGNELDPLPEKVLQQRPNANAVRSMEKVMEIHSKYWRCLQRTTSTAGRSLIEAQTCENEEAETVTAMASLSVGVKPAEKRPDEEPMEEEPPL

[6] = target: T3, HDAC8 (Homo sapiens, UniProt Q9BY41); assay: Isoenzyme selectivity, HDAC8 dose-response; type: biochemical; conditions: means ± standard deviation (n = 3)
T3 sequence (Q9BY41 1-377): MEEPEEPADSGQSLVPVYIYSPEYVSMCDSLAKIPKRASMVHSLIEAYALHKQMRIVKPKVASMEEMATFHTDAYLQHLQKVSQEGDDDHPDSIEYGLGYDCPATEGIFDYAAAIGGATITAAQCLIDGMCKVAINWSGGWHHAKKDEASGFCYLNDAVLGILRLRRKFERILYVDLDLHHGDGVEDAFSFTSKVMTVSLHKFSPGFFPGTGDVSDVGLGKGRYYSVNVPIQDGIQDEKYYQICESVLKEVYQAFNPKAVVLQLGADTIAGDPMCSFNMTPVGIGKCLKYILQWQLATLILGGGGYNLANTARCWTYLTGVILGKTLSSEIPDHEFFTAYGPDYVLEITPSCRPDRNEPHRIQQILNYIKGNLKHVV

[7] = target: T1, HDAC11; assay: Rapid dilution experiment (reversibility of binding); type: biochemical; conditions: 10× IC50, 100-fold rapid dilution, recovery of enzyme activity
Procedure: The inhibitors were evaluated for reversible inhibition in an enzyme activity assay. […] After equilibration for 1 h at 30 °C, this solution is diluted 100-fold directly into 80 μM of the substrate Boc-Lys(TFA)-AMC. After a further hour of incubation, the reaction was stopped as indicated in the enzyme activity assay section.

[8] = target: T1, HDAC11; assay: Time-dependent IC50 / pre-incubation one-step enzyme assay; type: biochemical; conditions: pre-incubation for different times up to 60 min
[9] = Cytotoxicity testing (XTT) against HEK293; type: cell-based; conditions: human, HEK293 cells, HEK293, 100 µM compound concentration, read-out: Cell viability
Procedure: (§1) Figure S10: Cytotoxicity testing of indicated compound against HEK293 cell. 5000 HEK293 cells were seeded in 96-Well plates. After 48h Inkubationszeit at 37°C and 5% CO2 in DMEM supplemented with 10% FBS and 1% Pen/Strep. A serial 1:2 dilution starting with 100 uM of compounds was added and incubated for a further 24h. XTT reagent was added and incubated for 4h. Afterwards the absorbance was measure at 450 nm and 600 nm. Data points are mean values ± standard error, n ≥ 6.
(§2) 9SPC045H03 in the enzyme activity assay is not due to compound-substrate interference. […]

[10] = tested on: HEK293 normal cells; assay: Cytotoxicity testing (XTT) against HEK293; type: cell-based; conditions: HEK293, up to 100 uM, 24h
Procedure: as §1, §2

[11] = target: T1, HDAC11; parameters: method as in PMID 31264832; conditions: 50 µM; cited from earlier work
[12] = target: T1, HDAC11; conditions: Figure 1 / text; read-out: HDAC11 IC50 of known inhibitors; cited from earlier work
[13] = means ± standard deviation (n = 3), read-out: IC50 against HDAC11

Structure (SMILES): N#C/C(=C\c1ccc(O)c(O)c1)C(=O)NCCCc1ccccc1 [9LOP015D09, Tyrphostin AG 555]
- Res. HDAC activity (residual HDAC11 activity) [1]: 49%
- IC50 [2, 13]: 4.3 ± 3 µM

Structure (SMILES): Cc1cccc(-n2c(SCc3ccc(C(=O)NO)cc3)nc3ccccc3c2=O)c1 [9HDA020B09]
- IC50 [2, 13]: 1.6 ± 0.3 µM

Structure (SMILES): Cc1cccc2nc(SCc3ccc(C(=O)NO)cc3)n(-c3ccc(Cl)cc3)c(=O)c12 [9HDA020C09]
- IC50 [3]: 0.9 ± 0.3 µM
- IC50 [4]: 2.3 ± 0.5 µM
- IC50 [5]: 0.9 ± 0.4 µM
- IC50 [6]: 6 ± 1 µM
- IC50 [2, 13]: 1.9 ± 0.4 µM

Structure (SMILES): Cc1ccccc1-n1c(SCc2ccc(C(=O)NO)cc2)nc2cccc(C)c2c1=O [9HDA020C08]
- IC50 [2, 13]: 3.5 ± 0.8 µM

Structure (SMILES): O=C(NO)c1ccc(CSc2nc3cc(Cl)ccc3c(=O)n2-c2ccccc2F)cc1 [9HDA020C04]
- IC50 [2, 13]: 2 ± 0.5 µM

Structure (SMILES): O=C(NO)c1ccc(CSc2nc3ccccc3c(=O)n2-c2ccc(Br)cc2)cc1 [9HDA020B07]
- IC50 [2, 13]: 2.6 ± 0.4 µM

Structure (SMILES): Cc1ccc(-n2c(SCc3ccc(C(=O)NO)cc3)nc3ccccc3c2=O)cc1 [9HDA020B05]
- IC50 [2, 13]: 2 ± 0.2 µM

Structure (SMILES): Oc1c(C(Nc2cccc(C(F)(F)F)c2)c2ccncc2)ccc2cccnc12 (centres unmarked) [9SPC045H03]
- IC50 [3]: 67 µM
- IC50 [4]: > 70 µM
- Reversibility of binding to HDAC11 [7]: reversible binding
- IC50 [5]: > 70 µM
- Time-dependence of HDAC11 inhibition [8]: no time-dependent inhibition
- IC50 [6]: 13 ± 5 µM
- viability at 24 h, 100 µM [9]: 50%
- Cytotoxic effect (in words) [10]: moderately toxic effect
- Selectivity for HDAC11 against HDAC8 ([2]; from IC50 values of Table 2): about 3 fold
- Selectivity for HDAC11 with respect to HDACs 1, 4, and 6 ([2]; from IC50 values of Table 2): more than 30 fold
- IC50 [2, 13]: 2.3 ± 0.5 µM

Structure (SMILES): CCc1ccc(-n2c(SCc3ccc(C(=O)NO)cc3)nc3cccc(C)c3c2=O)cc1 [9HDA020B06]
- IC50 [2, 13]: 1.6 ± 0.2 µM

Structure (SMILES): O=C(C=Cc1ccc(N=Cc2ccc([N+](=O)[O-])cc2)cc1)OCCc1ccccc1 [9SPC056H05]
- Res. HDAC activity (residual HDAC11 activity) [1]: 97%

Structure (SMILES): O=C(/C=C/c1ccc(O)c(O)c1)OCCc1ccccc1 [CAPE, caffeic acid phenethyl ester]
- Res. HDAC activity (residual HDAC11 activity) [1]: 46%
- IC50 [3]: > 70 µM
- IC50 [4]: 22 ± 5 µM
- Reversibility of binding to HDAC11 [7]: reversible binding
- IC50 [5]: 68 ± 30 µM
- Time-dependence of HDAC11 inhibition [8]: no time-dependent inhibition
- IC50 [6]: 7 ± 2 µM
- Cytotoxic effect (in words) [10]: did not show cytotoxic effects
- IC50 [2, 13]: 1.5 µM

Structure (SMILES): Cc1cccc2nc(SCc3ccc(C(=O)NO)cc3)n(-c3ccccc3F)c(=O)c12 [9HDA020C07]
- IC50 [2, 13]: 1.5 ± 0.3 µM

Structure (SMILES): O=C(NO)c1ccc(CSc2nc3ccccc3c(=O)n2-c2ccccc2F)cc1 [9HDA020B11]
- IC50 [2, 13]: 4.1 ± 0.5 µM

Structure (SMILES): O=C1NC(=O)/C(=C/c2ccc(O)nc2)S1 [9HDA018E08]
- IC50 [2, 13]: 19 ± 2 µM

Structure (SMILES): CCCCCCCCCCCCCCCCNNC(=O)c1cccs1 [SIS17]
- Degree of myristoylation of the HDAC11 substrate SHMT2 in cells [11]: significantly increased
- IC50 [12]: 0.85 µM

Structure (SMILES): O=C(NO)c1ccc(CSc2nc3ccccc3c(=O)n2-c2cccc(Cl)c2)cc1 [9HDA020B10]
- IC50 [2, 13]: 2 ± 0.3 µM

Structure (SMILES): Cc1cccc2nc(SCc3ccc(C(=O)NO)cc3)n(-c3ccccc3)c(=O)c12 [9HDA020C06]
- Res. HDAC activity (residual HDAC11 activity) [1]: 58%
- IC50 [3]: 0.2 ± 0.1 µM
- IC50 [4]: 1.4 ± 0.4 µM
- IC50 [2, 13]: 1.1 ± 0.4 µM

Structure (SMILES): O=C(CCc1ccccc1)c1c(O)cc(O)cc1O [9SPC036F04]
- IC50 [2, 13]: > 50 µM

Structure (SMILES): Cc1ccc(-n2c(SCc3ccc(C(=O)NO)cc3)nc3ccccc3c2=O)c(C)c1 [9HDA020B08]
- IC50 [2, 13]: 2 ± 0.2 µM

Structure (SMILES): N#C/C(=C\c1ccc(O)c(O)c1)C(=O)NCc1ccccc1 [9LOP015E07, Tyrphostin AG 490]
- Res. HDAC activity (residual HDAC11 activity) [1]: 65%
- IC50 [2]: 14 ± 3 µM

Structure (SMILES): O=C(O)/C=C/c1ccc(O)c(O)c1 [9LOP003E09, caffeic acid]
- IC50 [2, 13]: > 100 µM

Structure (SMILES): O=C(NO)c1ccc(CSc2nc3ccccc3c(=O)n2-c2ccccc2)cc1 [9HDA020B04]
- IC50 [2, 13]: 2.1 ± 0.2 µM
